# Assay: Storage stability of the formulation of Table 1 (prior formulation without fatty acid)
# Assay type: physicochemical
# Conditions: in the formulation of Table 1
# Procedure: Applicants have observed an increase in at least one mometasone degradation product over time when the above formulation is stored at room temperature. […] The formation of the degradation product generally can be minimized by storing the formulation at colder temperatures (e.g., 5° C.). There is, however, a need for a formulation that can remain stable at greater temperatures (e.g., room temperature). This invention provides such a formulation.
smiles,measurement,value
C[C@@H]1CN(c2c(F)c(F)c3c(=O)c(C(=O)O)cn(C4CC4)c3c2F)C[C@H](C)N1 [orbifloxacin],Effect of the orbifloxacin in the formulation on formation of the mometasone degradation product,accelerates the formation of the degradation product

# Source: US10045940B2, “Composition comprising an antibiotic and a corticosteroid” (Intervet Inc., priority 2008, dated 2018)
